Measured values published in patent publication US11319348B2, “Synthetic beta-amyloid peptides capable of forming stable antigenic oligomers” (The Regents of the University of California, priority 2016, dated 2022).
Entries after “also recorded” stand apart in the source; their conditions may differ.

What was measured:
[1] = test system: SH-SY5Y cells; test: LDH release assay; format: cell-based, human
Protocol: Aβ is known to be toxic toward neurons and neuronally derived cells (I. Benilova, et al., 2012, cited supra). To corroborate the toxicity of Aβ, we prepared oligomers of Aβ42 and studied their toxicity toward a human neuroblastoma cell line, SH-SY5Y. Aβ oligomers were prepared according to the procedure developed by Teplow and coworkers using recombinantly expressed Aβ42 pretreated with NH4OH (purchased from rPeptide) (D. B. Teplow, Methods Enzymol. 2006 413, 20-33; and Y. Fezoui, et al., Amyloid. 2000 7, 166-178; the disclosures of which are incorporated herein by reference). Under the conditions of the oligomer preparation, Aβ42 forms predominantly monomer, trimer, and tetramer as assessed by SDS-PAGE (FIG. 28A). It was also observed that bands migrated with molecular weights consistent with a pentamer and hexamer. SH-SY5Y cells were treated with varying concentrations of Aβ42, and toxicity was evaluated using a lactate dehydrogenase (LDH) release assay. Aβ42 increased LDH release in a dose-dependent manner at concentrations as low as 2.5 μM, corroborating the toxicity of Aβ42 (FIG. 28B).
It was hypothesized that trimers 3 and 4 may elicit toxicity similarly to Aβ42. The toxicities of trimers 3 and 4 towards SH-SY5Y cells were evaluated using an LDH assay, using deionized water (vehicle) and peptides 1 and 2 as controls. Trimer 4 increased LDH release in a dose-dependent manner at concentrations as low as 1.5 μM, indicating toxicity toward SH-SY5Y cells (FIG. 29A). LDH release was observed as early as 48 h after addition to the cells and reached a maximum after 72 h.
Many oligomers formed by full-length Aβ are toxic toward cells (I. Benilove, E. Karan, and B. De Strooper, Nat. Neurosci. 2012 15, 349-357; and M. E. Larson and S. E. Lesne J. Neurochem. 2012 120, 125-139; the disclosures of which are incorporated herein by reference). To test whether the oligomers formed by peptide 8 are also toxic, the toxicity of peptide 8 toward neuronally derived SH-SY5Y cells were evaluated using a lactate dehydrogenase (LDH) release assay. Peptide 8 and 10 were compared to investigate how the hexamer-forming Aβ16-36-derived peptide compares to a non-oligomerizing homologue. The toxicity of peptides 2 and 11 were also evaluated to better understand the relationship between oligomerization and toxicity.
The toxicities of peptides 1 and […], and trimers 3 and 4 toward SH-SY5Y cells were assessed by LDH release and caspase-3 activation assays. Cells were incubated in the presence or absence of equivalent concentrations of peptides 1 or 3, or trimers 3 and 4 for 72 h in 96-well plates. The LDH release assay was performed using the Pierce LDH Cytotoxicity Assay Kit from Thermo Scientific. The caspase-3 assay was performed using the Roche APO-One Homogeneous Caspase-3/7 Assay. Experiments were performed in replicates of five and an additional 10 wells were used for controls. Cells were cultured in the inner 60 wells (rows B-G, columns 2-11) of the 96-well plate. DMEM:F12 media (100 μL) was added to the outer wells (rows A and H, columns 1 and 12), in order to ensure the greatest reproducibility of data generated in the inner wells.
A 10 mg/mL stock solution of peptides 1 or […], or trimers 3 and 4 was prepared gravimetrically by dissolving 1 mg of each compound in 100 μL of deionized water that was either filtered through a 0.2 μm syringe filter or autoclaved. The stock solution was used to create 180 μM working solutions of peptides 1 or 3, or 60 μM working solutions of trimers 3 and 4 (these solutions contain equivalent concentrations of peptide). The 180 μM working solutions of peptides 1 and 2 were serially diluted with deionized water to create 90 μM working solutions of peptides 1 and 2. The 60 μM working solutions of trimers 3 and 4 were serially diluted with deionized water to create 30 μM, 15 μM, and 7.5 μM working solutions of trimers 3 and 4.
SH-SY5Y cells were plated in a 96-well plate at 30,000 cells per well. […]

[2] = size exclusion chromatography in Tris buffer; format: physicochemical
Description: The elution profile of peptide 8 was compared to the size standards vitamin B12, aprotinin, and cytochrome c, as well as peptide 2. Peptide 8 elutes as a broad peak with three distinct humps (FIG. 41B). […] Peptide 2 elutes as two distinct peaks: a larger peak with an elution volume consistent with the molecular weight of a dimer, and a smaller peak with an elution volume consistent with the molecular weight of a trimer (FIG. 41B). […]

[3] = Tricine SDS-PAGE with silver staining; format: physicochemical
Description: Trimer 3 migrates as a single band at a molecular weight consistent with a hexamer. Trimer 4, in contrast, migrates as two distinct bands: a band consistent with the molecular weight of a dodecamer, and a band consistent with the molecular weight of a trimer.
Peptide 8 assembles to form a hexamer in SDS-PAGE. […] To further confirm the oligomerization state of […], it was compared to covalent trimers 3 and 4 (FIGS. 19A and 19B), which was previously determined to migrate respectively as 10.6 kDa hexamers and 21.2 kDa dodecamers in equilibrium with the 5.3 kDa trimers. Peptide 8 migrates at the same molecular weight as the hexamer band of trimer 3, providing further evidence that peptide 8 assembles to form a hexamer in SDS-PAGE.
The oligomerization of peptides 1 and 2 and trimers 3 and 4 was studied by Tricine SDS-PAGE.
Each peptide or trimer was dissolved in deionized water to a concentration of 10 mg/mL. An aliquot of the 10 mg/mL solutions was diluted with deionized water to create 2 mg/mL solutions of peptides 1 and 2, or 0.12 mg/mL solutions of trimers 3 and 4. The […] of peptides 1 and 2, as well as the 0.12 mg/mL solutions of trimers 3 and 4 were further diluted with 2×SDS-PAGE loading buffer (100 mM Tris buffer at pH 6.8, 20% (v/v) glycerol, and 4% SDS) to create 1 mg/mL working solutions of peptides 1 and 2, and 0.06 mg/mL working solutions of trimers 3 and 4. A 5 μL aliquot of each working solution was run on a 16% polyacrylamide gel with a 4% stacking polyacrylamide gel. The gels were run at a constant 60 volts at 4° C.
Staining with silver nitrate was used to visualize peptides 1 and 2 and trimers 3 and 4 in the SDS-PAGE gel. Briefly, the gel was removed from the casting glass and rocked in fixing solution (50% (v/v) methanol and 5% (v/v) acetic acid in deionized water) for 20 min. Next, the fixing solution was discarded and the gel was rocked in 50% (v/v) methanol for 10 min. Next, the 50% methanol was discarded and the gel was rocked in deionized water for 10 min. Next, the water was discarded and the gel was rocked in 0.02% (w/v) sodium thiosulfate in deionized water for 1 min. The sodium thiosulfate was discarded and the gel was rinsed with deionized water (2×). After the last rinse, the gel was submerged in chilled 0.1% (w/v) silver nitrate in deionized water and rocked at 4° C. for 20 min. Next, the silver nitrate solution was discarded and the gel was rinsed with deionized water (2×). To develop the gel, the gel was incubated in developing solution (2% w/v sodium carbonate, 0.04% formaldehyde until the desired intensity of staining was reached (˜1-3 min). When the desired intensity of staining was reached, the development was topped by discarding the developing solution and submerging the gel in 5% acetic acid.

Substance | lowest concentration with increased LDH release / toxicity (concentrations as low as) ([1]; SH-SY5Y cells) | dose dependence of LDH release ([1]; 50, 100 and 200 μM) | LDH release / toxicity toward SH-SY5Y cells, in words ([1]; SH-SY5Y cells) | oligomer size ([2]; SEC) | oligomer state consistent with SEC elution volume ([2]; absence of SDS) | oligomer state by migration in SDS-PAGE [3]
Aβ42: oligomers prepared from recombinantly expressed Aβ42 pretreated with NH4OH (purchased from rPeptide) [reference compound] | 2.5 µM |  |  |  |  | 
peptide 8: Aβ16-22 and Aβ30-36 β-strands linked by two δOrn turn units, N-methyl on Phe19, native Met35 (Seq. ID 33-34) | 50 µM | No dose dependence | toxic | monomer, dimer,; also recorded: trimer | dimers and trimers; also recorded: monomer, dimer, and trimer | hexamer
